Test results from patent US12636368B2, “Ionizable lipids for nucleic acid delivery” (Global Life Sciences Solutions Canada ULC, priority 2019, dated 2026).
Like-named read-outs stand apart in the source and are kept apart here.

Experiments:
Type in all cases: physicochemical
[1] = LNP size and PDI by dynamic light scattering
Procedure, shortened: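 Hydrodynamic diameter measured by DLS with a 633 nm He/Ne laser in backscatter mode (173°), averaging 10 runs of two cycles per sample. Size reported as Z-average (harmonic intensity-averaged diameter), with polydispersity given as PDI.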

[2] = TNS assay, surface pKa of lipid nanoparticles
Procedure, shortened: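 Empty LNPs containing the ionizable lipid (LM02 composition, 0.781 mM total lipid before mixing) were combined with TNS in 10 mM HEPES, 10 mM MES, 10 mM NH4OAc, 130 mM NaCl buffers at pH 3–9 in 0.5 steps. Fluorescence was read at room temperature (ex 321/em 445 nm); pKa was taken as the pH of half-maximal intensity from a sigmoidal fit.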

[3] = Nucleic acid encapsulation efficiency by RiboGreen assay
[4] = Table 6, GFP-encoded LNPs, CT10, N/P 8
[5] = Table 7, EPO mRNA LNPs, LM02, N/P 6
[6] = Table 1, formulated lipid nanoparticles, TNS assay, read-out: Exp. pKa

Row | Structure (SMILES) | Diameter (Z. ave, nm) [1, 4] [nm] | Polydispersity Index (PDI) [1, 4] | Diameter (Z. ave, nm) [1, 5] [nm] | Polydispersity Index (PDI) [1, 5] | pKa [2, 6] | pKa ([2]; Table 5, read-out: pKa Exp.) | pKa ([2]; Table 8, read-out: Exp.pKa) | Encapsulation Efficiency (%) [3, 4] [%] | Encapsulation Efficiency (%) [3, 5] [%]
1 | CCCCC/C=C\C/C=C\CCCCCCCC(=O)O[C@@H]1[C@@H](OC(=O)CCCCCCC/C=C\C/C=C\CCCCC)CO[C@@H]1COC(=O)CCCN(C)C (racemic) [PNI 121] | 100.7 | 0.16 | 93.5 | 0.10 | 6.83 | 6.83 | 6.8 | 87.3 | 98.8
2 | CCCCC/C=C\C/C=C\CCCCCCCC(=O)O[C@@H]1[C@@H](OC(=O)CCCCCCC/C=C\C/C=C\CCCCC)CO[C@@H]1COC(=O)C1CCN(C)C1 (mixture of isomers) [PNI 328] | 92.6 | 0.16 | 66.9 | 0.02 | 6.09 | – | 6.09 | 92.5 | 96.2
3 | CCCCC/C=C\C/C=C\CCCCCCCC(=O)O[C@@H]1[C@@H](OC(=O)CCCCCCC/C=C\C/C=C\CCCCC)CO[C@@H]1COC(=O)C1(C)CCN(C)C1 (mixture of isomers) [PNI 329] | 74.1 | 0.11 | 70.9 | 0.04 | 5.88 | – | 5.88 | 93.2 | 94.4
4 | CCCCC/C=C\C/C=C\CCCCCCCC(=O)O[C@@H]1[C@@H](OC(=O)CCCCCCC/C=C\C/C=C\CCCCC)CO[C@@H]1COC(=O)CCCN1CCCC1 (racemic) [PNI 539] | – | – | 86.9 | 0.13 | 6.6 | – | 6.6 | – | 88.2
